Values joined by “and” are separate entries in the source; they are usually repeats but may differ in a detail not shown here. Equal values may be shown once. Inconclusive results and toxic doses are left out. Cut-off read from the data, not from the text of the source: active = T/C of 150% or more; inactive = T/C below 125%.
System: L1210 leukemia ip in BDF1 mice, survival T/C
Assay: NCI In Vivo Anticancer Drug Screen. Data for tumor model L1210 Leukemia (intraperitoneal) in B6D2F1 (BDF1) mice
Conditions: endpoint: mean survival time, higher = longer survival
Procedure, shortened: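 Each compound was tested against a transplantable tumor grown in mice. The endpoint was survival, with treated animals benchmarked against vehicle controls as a simple ratio.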

[1] = dose: 100.0 mg/kg/injection, schedule: Q04DX002 (ip), vehicle: Klucel (hydroxypropylcellulose) (HPC)
[2] = dose: 200.0 mg/kg/injection, schedule: Q04DX002 (ip), vehicle: Klucel (hydroxypropylcellulose) (HPC)
[3] = dose: 100.0 mg/kg/injection, schedule: Q04DX003 (ip), vehicle: saline with Tween-80
[4] = dose: 200.0 mg/kg/injection, schedule: Q04DX003 (ip), vehicle: saline with Tween-80
[5] = dose: 400.0 mg/kg/injection, schedule: Q04DX003 (ip), vehicle: saline with Tween-80
[6] = dose: 25.0 mg/kg/injection, schedule: Q01DX009 (ip), vehicle: Klucel (hydroxypropylcellulose) (HPC)
[7] = dose: 50.0 mg/kg/injection, schedule: Q01DX009 (ip), vehicle: Klucel (hydroxypropylcellulose) (HPC)
[8] = dose: 100.0 mg/kg/injection, schedule: Q01DX009 (ip), vehicle: Klucel (hydroxypropylcellulose) (HPC)
[9] = dose: 100.0 mg/kg/injection, schedule: Q04DX003 (ip), vehicle: Klucel (hydroxypropylcellulose) (HPC)
[10] = dose: 200.0 mg/kg/injection, schedule: Q04DX003 (ip), vehicle: Klucel (hydroxypropylcellulose) (HPC)
[11] = dose: 200.0 mg/kg/injection, schedule: Q01DX009 (ip), vehicle: Klucel (hydroxypropylcellulose) (HPC)
[12] = dose: 400.0 mg/kg/injection, schedule: Q01DX009 (ip), vehicle: Klucel (hydroxypropylcellulose) (HPC)
[13] = dose: 100.0 mg/kg/injection, schedule: Q01DX001 (ip), vehicle: saline with Tween-80
[14] = dose: 200.0 mg/kg/injection, schedule: Q01DX001 (ip), vehicle: saline with Tween-80
[15] = dose: 400.0 mg/kg/injection, schedule: Q01DX001 (ip), vehicle: saline with Tween-80
[16] = dose: 100.0 mg/kg/injection, schedule: Q04DX002 (ip), vehicle: saline
[17] = dose: 200.0 mg/kg/injection, schedule: Q04DX002 (ip), vehicle: saline
[18] = dose: 400.0 mg/kg/injection, schedule: Q04DX002 (ip), vehicle: Klucel (hydroxypropylcellulose) (HPC)
[19] = dose: 100.0 mg/kg/injection, schedule: Q01DX009 (ip), vehicle: saline with Tween-80
[20] = dose: 200.0 mg/kg/injection, schedule: Q01DX009 (ip), vehicle: saline with Tween-80
[21] = dose: 400.0 mg/kg/injection, schedule: Q01DX009 (ip), vehicle: saline with Tween-80

Measured: T/C

CC(CCF)C(N)C(=O)O (stereo unspecified)
inactive: dose: 3.0 mg/kg/injection, schedule: Q01DX009 (ip), vehicle: saline 98 % of control | dose: 6.0 mg/kg/injection, schedule: Q01DX009 (ip), vehicle: saline 100 % of control | dose: 10.0 mg/kg/injection, schedule: Q01DX001 (ip), vehicle: saline 91 % of control | dose: 12.0 mg/kg/injection, schedule: Q01DX009 (ip), vehicle: saline 102 % of control | dose: 12.5 mg/kg/injection, schedule: Q01DX009 (ip), vehicle: saline 100 % of control | dose: 19.0 mg/kg/injection, schedule: Q01DX001 (ip), vehicle: saline 95 % of control | dose: 37.5 mg/kg/injection, schedule: Q01DX001 (ip), vehicle: saline 113 % of control | dose: 38.0 mg/kg/injection, schedule: Q01DX001 (ip), vehicle: saline 91 % of control

O=C(Nc1cccc(C(=O)Nc2cc(C3=NCCN3)cc(C3=NCCN3)c2)c1)Nc1cccc(C(=O)Nc2cc(C3=NCCN3)cc(C3=NCCN3)c2)c1
inactive: dose: 15.0 mg/kg/injection, schedule: Q01DX Z (ip), vehicle: methylcellulose (MC) 109 % of control | dose: 30.0 mg/kg/injection, schedule: Q01DX Z (ip), vehicle: methylcellulose (MC) 105 % of control | dose: 60.0 mg/kg/injection, schedule: Q01DX Z (ip), vehicle: methylcellulose (MC) 96 % of control

O=C1CC2CCCC(C1)N2CC1COc2ccccc2O1 (stereo unspecified)
inactive: dose: 50.0 mg/kg/injection, schedule: Q04DX002 (ip), vehicle: Klucel (hydroxypropylcellulose) (HPC) 90 % of control | [1] 90 % of control | [2] 93 % of control

COP(=O)(OC)C(OC(=O)C(C)(C)Br)=C(C)C
inactive: [3] 102 % of control | [4] 106 % of control | [5] 113 % of control

CCc1ccccc1NC(=O)Sc1cccc(C)c1
inactive: [6] 96 % of control | [7] 96 % of control | [8] 98 % of control and 103 % of control | [9] 100 % of control | [10] 105 % of control

CCOC(=O)NC1=C(N2CC2(C)C)C(=O)C(NC(=O)OCC)=C(N2CC2(C)C)C1=O
inactive: dose: 0.93 mg/kg/injection, schedule: Q01DX009 (ip), vehicle: saline 94 % of control and 110 % of control | dose: 1.87 mg/kg/injection, schedule: Q01DX009 (ip), vehicle: saline 100 % of control and 91 % of control | dose: 3.75 mg/kg/injection, schedule: Q01DX009 (ip), vehicle: saline 96 % of control and 102 % of control | dose: 7.5 mg/kg/injection, schedule: Q01DX009 (ip), vehicle: saline 102 % of control and 107 % of control | dose: 15.0 mg/kg/injection, schedule: Q01DX009 (ip), vehicle: saline 96 % of control and 89 % of control | dose: 30.0 mg/kg/injection, schedule: Q01DX009 (ip), vehicle: saline 100 % of control and 102 % of control

O=[N+]([O-])c1ccc2ccc3ccccc3c2c1
inactive: dose: 100.0 mg/kg/injection, schedule: Q01DX001 (ip), vehicle: carboxymethylcellulose (CMC) 97 % of control | dose: 200.0 mg/kg/injection, schedule: Q01DX001 (ip), vehicle: carboxymethylcellulose (CMC) 95 % of control | dose: 400.0 mg/kg/injection, schedule: Q01DX001 (ip), vehicle: carboxymethylcellulose (CMC) 97 % of control

CSc1ccc(NC(=O)Oc2cc(C)ccc2C(C)C)cc1
inactive: [7] 94 % of control | [8] 100 % of control and 88 % of control | [11] 89 % of control | [12] 91 % of control

Nc1ccc(NS(=O)(=O)Cc2ccccc2)cc1
inactive: [13] 98 % of control | [14] 96 % of control | [15] 107 % of control

CNC(=S)N/N=C(/C)C(=O)O
inactive: [8] 96 % of control | [9] 96 % of control | [11] 96 % of control | [10] 91 % of control | [12] 102 % of control | dose: 400.0 mg/kg/injection, schedule: Q04DX003 (ip), vehicle: Klucel (hydroxypropylcellulose) (HPC) 88 % of control

CNc1nnnn1-c1ccccc1
inactive: dose: 100.0 mg/kg/injection, schedule: Q01DX001 (ip), vehicle: acetone 95 % of control | dose: 200.0 mg/kg/injection, schedule: Q01DX001 (ip), vehicle: acetone 100 % of control | dose: 400.0 mg/kg/injection, schedule: Q01DX001 (ip), vehicle: acetone 95 % of control

O=C(CCCc1ccc(N(CCCl)CCCl)cc1)OCc1ccccc1
inactive: [16] 121 % of control | [17] 108 % of control | dose: 400.0 mg/kg/injection, schedule: Q04DX002 (ip), vehicle: saline 121 % of control

COc1cc(/C=C2\C(=O)C=C(C)CC2(C)C)ccc1O
inactive: dose: 25.0 mg/kg/injection, schedule: Q04DX003 (ip), vehicle: saline with Tween-80 92 % of control | dose: 50.0 mg/kg/injection, schedule: Q04DX003 (ip), vehicle: saline with Tween-80 89 % of control | [3] 89 % of control | [4] 90 % of control

NC(=O)C1C2C=CC(O2)C1C(N)=O (stereo unspecified)
inactive: [16] 89 % of control | [17] 92 % of control

CN(C)C(=S)Nc1ccccc1
inactive: dose: 100.0 mg/kg/injection, schedule: Q01DX009 (ip), vehicle: saline 114 % of control | dose: 130.0 mg/kg/injection, schedule: Q01DX009 (ip), vehicle: Klucel (hydroxypropylcellulose) (HPC) 98 % of control | [11] 103 % of control

O=[N+]([O-])c1cccc(/C=N/N(c2ccccc2)C2CCS(=O)(=O)C2)c1 (stereo unspecified)
inactive: [1] 95 % of control | [2] 106 % of control | [18] 103 % of control

CCCCCC1OC1C/C=C\CCCCCCCC(=O)OCC(O)COC(=O)CCCCCCC/C=C\CC1OC1CCCCC (stereo unspecified)
inactive: dose: 100.0 mg/kg/injection, schedule: Q01DX001 (ip), vehicle: saline 97 % of control | dose: 200.0 mg/kg/injection, schedule: Q01DX001 (ip), vehicle: saline 97 % of control | dose: 400.0 mg/kg/injection, schedule: Q01DX001 (ip), vehicle: saline 95 % of control

Oc1cccnc1CN1CCOCC1
inactive: [19] 96 % of control | [3] 97 % of control | [20] 89 % of control | [4] 108 % of control | [21] 96 % of control | [5] 100 % of control

c1ccc(CCNCc2ccc(CNCCc3ccccc3)cc2)cc1
inactive: [3] 93 % of control | [4] 90 % of control

Cc1nccc2c(C)c3sc4ccccc4c3cc12
inactive: dose: 124.0 mg/kg/injection, schedule: Q01DX001 (ip), vehicle: alcohol 96 % of control | dose: 186.0 mg/kg/injection, schedule: Q01DX001 (ip), vehicle: alcohol 110 % of control | dose: 280.0 mg/kg/injection, schedule: Q01DX001 (ip), vehicle: alcohol 117 % of control | dose: 320.0 mg/kg/injection, schedule: Q01DX001 (ip), vehicle: alcohol 109 % of control

O=Nc1ccc2ccccc2c1N=Nc1ccccc1C(=O)O
inactive: [8] 101 % of control | [11] 100 % of control | [12] 103 % of control

CCOC(=O)c1ccc(=O)[nH]c1.[Ag]
inactive: dose: 6.25 mg/kg/injection, schedule: Q01DX009 (ip), vehicle: Klucel (hydroxypropylcellulose) (HPC) 94 % of control | dose: 12.5 mg/kg/injection, schedule: Q01DX009 (ip), vehicle: Klucel (hydroxypropylcellulose) (HPC) 90 % of control | [6] 90 % of control | [7] 86 % of control | [9] 95 % of control | [10] 92 % of control

NC(N)=NC(N)=Nc1ccc(N=C(N)N=C(N)N)cc1
inactive: dose: 100.0 mg/kg/injection, schedule: Q01DX001 (ip), vehicle: other 104 % of control

N#Cc1nc2c(n(O)c1=N)CCC/C2=C\c1ccc(Cl)c(Cl)c1
inactive: [1] 99 % of control | [2] 89 % of control | [18] 92 % of control

O=C(O)COc1ccccc1CO
inactive: [13] 91 % of control | [19] 88 % of control | [14] 94 % of control | [20] 94 % of control | [15] 92 % of control | [21] 91 % of control

— PubChem BioAssay AID248 (DTP/NCI, 2004)
